This passage reports Ki results from patent publication US5120751A, “Benzoylphenyl pyridinylthiazolidine compounds as platelet activating antagonists” (Abbott Laboratories, priority 1991, dated 1992).

Structures can show the parent of a compound that is named as a salt.

In this test the target is PAF receptor (Oryctolagus cuniculus, UniProt G1TEI7). Briefly: PAF receptor binding assay: inhibition of specific [3H]C18-PAF binding to rabbit platelet membranes. Conditions: 0.6 nM [3H]C18-PAF, 60 minutes at 22-23 °C, pH 7.0, Ki calculated from IC50 (Cheng and Prusoff).
PAF receptor, sequence (G1TEI7 1-342): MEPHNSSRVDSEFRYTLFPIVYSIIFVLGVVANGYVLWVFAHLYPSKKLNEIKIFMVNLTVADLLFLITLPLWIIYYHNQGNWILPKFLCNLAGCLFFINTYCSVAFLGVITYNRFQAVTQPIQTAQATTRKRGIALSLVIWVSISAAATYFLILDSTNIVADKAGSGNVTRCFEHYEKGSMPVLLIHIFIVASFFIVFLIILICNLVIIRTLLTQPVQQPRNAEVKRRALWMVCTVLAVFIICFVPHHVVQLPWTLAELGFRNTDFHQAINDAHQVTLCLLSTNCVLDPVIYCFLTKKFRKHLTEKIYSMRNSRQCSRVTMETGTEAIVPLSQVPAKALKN

The term Ki denotes the dissociation constant of the complex between target and ligand, obtained from inhibition or displacement. For `COc1ccc(C(=O)c2cccc(NC(=O)C3CSC(c4cccnc4)N3)c2)cc1` (stereo not drawn) [Example 5, N-[3-(4-methoxybenzoyl)phenyl] 2-(3-pyridinyl)-4-thiazolidinecarboxamide dihydrochloride], the Ki is 34 nM. To `O=C(Nc1cccc(C(=O)c2ccccc2)c1)NC1CSC(c2cccnc2)S1` (stereo not drawn) [Example 17a, N-(3-benzoylphenyl) N'-[2-(3-pyridinyl)dithiolan-4-yl] urea] belongs 1300 nM; to `COc1cc(C(=O)c2cccc(NC(=O)C3CSC(c4cccnc4)N3)c2)cc(OC)c1OC` (stereo not drawn) [Example 4, N-[3-(3,4,5-trimethoxybenzoyl)phenyl] 2-(3-pyridinyl)-4-thiazolidinecarboxamide dihydrochloride], 1 nM. Next, `COc1cc(OC)cc(C(=O)c2cccc(NC(=O)C3CSC(c4cccnc4)N3)c2)c1` (stereo not drawn) [Example 7, N-[3-(3,5-dimethoxybenzoyl)phenyl] 2-(3-pyridinyl)-4-thiazolidinecarboxamide dihydrochloride]: 2 nM; `CNC(=O)N1C(C(=O)Nc2cccc(C(=O)c3ccccc3)c2)CSC1c1cccnc1` (stereo not drawn) [Example 12, N-(3-benzoylphenyl) 2-(3-pyridinyl)-3-(N-methylcarbamoyl)-4-thiazolidinecarboxamide]: 700 nM. As to `O=C(c1cccc(NC(=O)C2CSC(c3cccnc3)N2)c1)c1ccc2c(c1)OCO2` (stereo not drawn) [Example 6, N-[3-(3,4-methylenedioxybenzoyl)phenyl] 2-(3-pyridinyl)-4-thiazolidinecarboxamide dihydrochloride], the Ki is 33 nM. As for `CC(C)(C)OC(=O)N1C(C(=O)Nc2cccc(C(=O)c3ccccc3)c2)CSC1c1cccnc1` (stereo not drawn) [Example 2, N-(3-benzoylphenyl) 2-(3-pyridinyl)-3-tert-butoxycarbonyl-4-thiazolidinecarboxamide], the Ki was 100000 nM. Next, `CN(C(=O)NC1CSC(c2cccnc2)S1)c1cccc(C(=O)c2ccccc2)c1` (stereo not drawn) [Example 19b, N-methyl-N-(3-benzoylphenyl) N'-[2-(3-pyridinyl)dithiolan-4-yl] urea]: 7000 nM.

Regarding `O=CN1C(C(=O)Nc2cccc(C(=O)c3ccccc3)c2)CSC1c1cccnc1` (stereo not drawn) [Example 11, N-(3-benzoylphenyl) 2-(3-pyridinyl)-3-formyl-4-thiazolidinecarboxamide], the Ki is 500 nM. For `CN(C(=O)C1CSC(c2cccnc2)N1)c1cccc(C(=O)c2ccccc2)c1` (stereo not drawn) [Example 15, N-(3-benzoylphenyl) N-methyl 2-(3-pyridinyl)-4-thiazolidinecarboxamide dihydrochloride], the Ki was 620 nM. As for `O=C(CC1CSC(c2cccnc2)N1)Nc1cccc(C(=O)c2ccccc2)c1` (stereo not drawn) [Example 13, N-(3-benzoylphenyl) 2-(3-pyridinyl)-thiazolid-4-ylacetamide], the Ki is 5800 nM. Take `COc1cc(C(=O)c2cccc(NC(=O)NC3CSC(c4cccnc4)S3)c2)cc(OC)c1OC` (stereo not drawn) [Example 18b, N-[3-(3,4,5-trimethoxybenzoyl)phenyl] N'-[2-(3-pyridinyl)dithiolan-4-yl] urea]: the Ki was 35 nM. Consider `O=C(c1ccccc1)c1cccc(NC(=O)C2CSC(c3cccnc3)S2)c1` (stereo not drawn) [Example 9, N-(3-benzoylphenyl) 2-(3-pyridinyl)-4-dithiolanecarboxamide], for which the Ki was 23 nM. To `CN(C(=O)NC1CSC(c2cccnc2)S1)c1cccc(C(=O)c2ccccc2)c1` (stereo not drawn) [Example 19a, N-methyl-N-(3-benzoylphenyl) N'-[2-(3-pyridinyl)dithiolan-4-yl] urea] belongs 2900 nM. Next, `O=C(c1ccccc1)c1cccc(NC(=O)C2CSC(c3cccnc3)N2)c1` (stereo not drawn) [Example 1, N-(3-benzoylphenyl) 2-(3-pyridinyl)-4-thiazolidine carboxamide]: 5 nM; `COc1ccc(C(=O)c2cccc(NC(=O)C3CSC(c4cccnc4)N3)c2)cc1OC` (stereo not drawn) [Example 8, N-[3-(3,4-dimethoxybenzoyl)phenyl] 2-(3-pyridinyl)-4-thiazolidinecarboxamide dihydrochloride]: 6 nM. To `COc1cc(C(=O)c2cccc(N(C)C(=O)C3CSC(c4cccnc4)S3)c2)cc(OC)c1OC` (stereo not drawn) [Example 16, N-[3-(3,4,5-trimethoxybenzoyl)phenyl] N-methyl 2-(3-pyridinyl)-4-dithiolanecarboxamide hydrochloride] belongs 2600 nM; to `COc1cc(C(=O)c2cccc(N(C)C(=O)NC3CSC(c4cccnc4)S3)c2)cc(OC)c1OC` (stereo not drawn) [Example 20a, N-methyl-N-[3-(3,4,5-trimethoxybenzoyl)phenyl] N'-[2-(3-pyridinyl)dithiolan-4-yl] urea], 260 nM.

`COc1cc(C(=O)c2cccc(N(C)C(=O)NC3CSC(c4cccnc4)S3)c2)cc(OC)c1OC` (stereo not drawn) [Example 20b, N-methyl-N-[3-(3,4,5-trimethoxybenzoyl)phenyl] N'-[2-(3-pyridinyl)dithiolan-4-yl] urea]: the Ki is 2200 nM. In the case of `O=C(Nc1cccc(C(=O)c2ccccc2)c1)NC1CSC(c2cccnc2)S1` (stereo not drawn) [Example 17b, N-(3-benzoylphenyl) N'-[2-(3-pyridinyl)dithiolan-4-yl] urea], the Ki was 260 nM.

As for `O=C(c1ccccc1)c1cccc(NC(=O)C2CCC(c3cccnc3)N2)c1` (stereo not drawn) [Example 21, N-(3-benzoylphenyl)-2-(3-pyridyl)-5-pyrrolidinecarboxamide], the Ki was 780 nM.

With `NC(=O)N1C(CC(=O)Nc2cccc(C(=O)c3ccccc3)c2)CSC1c1cccnc1` (stereo not drawn) [Example 14, N-(3-benzoylphenyl) 2-(3-pyridinyl)-3-carbamoylthiazolid-4-ylacetamide], the Ki is 150 nM. To `COc1cc(C(=O)c2cccc(NC(=O)C3CSC(c4cccnc4)S3)c2)cc(OC)c1OC` (stereo not drawn) [Example 10, N-[3-(3,4,5-trimethoxybenzoyl)phenyl] 2-(3-pyridinyl)-4-dithiolanecarboxamide] belongs 570 nM; to `COc1cc(C(=O)c2cccc(NC(=O)NC3CSC(c4cccnc4)S3)c2)cc(OC)c1OC` (stereo not drawn) [Example 18a, N-[3-(3,4,5-trimethoxybenzoyl)phenyl] N'-[2-(3-pyridinyl)dithiolan-4-yl] urea], 650 nM.
